Data published in publication PMC5458547, “Discovery of first-in-class reversible dual small molecule inhibitors against G9a and DNMTs in hematological malignancies” (Nature Communications, 2017).

Key:
Assay in all cases: KINOMEscan kinase profiling
Assay type in all cases: binding
TSSK1B = target: T1, TSSK1B (Homo sapiens, UniProt Q9BXA7); settings: read-out: Percent Control
T1 construct: purchased DiscoverX KINOMEscan (kinases); BPS Bioscience (epigenetic targets)
Procedure: (§1) Kinase Selectivity Profiling
(§2) (out of which 90 are non-mutant kinases) was performed at DiscoverRx (http://www.discoverx.com/home) using the KINOMEscan™ screening platform at a test concentration of 10 µM. Results for primary screen […]
(§3) positive control signal) / (negative control signal – positive control signal) *100, where negative control corresponds to DMSO treatment (100%) and positive control to the signal obtained with a control competitive compound (0%). […]
(§4) using the Hill equation. Each target was assayed in duplicate. […]

MKNK1 = target: T2, MKNK1 (Homo sapiens, UniProt Q9BUB5); settings: read-out: Percent Control
T2 construct: purchased DiscoverX KINOMEscan (kinases); BPS Bioscience (epigenetic targets)
Procedure: as §1, §2, §3, §4

MARK3 = target: T3, MARK3 (Homo sapiens, UniProt P27448); settings: read-out: Percent Control
T3 construct: purchased DiscoverX KINOMEscan (kinases); BPS Bioscience (epigenetic targets)
Procedure: as §1, §2, §3, §4

CDK7 = target: T4, CDK7 (Homo sapiens, UniProt P50613); settings: read-out: Percent Control
T4 construct: purchased DiscoverX KINOMEscan (kinases); BPS Bioscience (epigenetic targets)
Procedure: as §1, §2, §3, §4

MEK2 = target: T5, MEK2 (Homo sapiens, UniProt P36507); settings: read-out: Percent Control
T5 construct: purchased DiscoverX KINOMEscan (kinases); BPS Bioscience (epigenetic targets)
Procedure: as §1, §2, §3, §4

PLK3 = target: T6, PLK3 (Homo sapiens, UniProt Q9H4B4); settings: read-out: Percent Control
T6 construct: purchased DiscoverX KINOMEscan (kinases); BPS Bioscience (epigenetic targets)
Procedure: as §1, §2, §3, §4

IKK-alpha = target: T7, IKK-alpha (Homo sapiens, UniProt O15111); settings: read-out: Percent Control
T7 construct: purchased DiscoverX KINOMEscan (kinases); BPS Bioscience (epigenetic targets)
Procedure: as §1, §2, §3, §4

RAF1 = target: T8, RAF1 (Homo sapiens, UniProt P04049); settings: read-out: Percent Control
T8 construct: purchased DiscoverX KINOMEscan (kinases); BPS Bioscience (epigenetic targets)
Procedure: as §1, §2, §3, §4

PIK3C2B = target: T9, PIK3C2B (Homo sapiens, UniProt O00750); settings: read-out: Percent Control
T9 construct: purchased DiscoverX KINOMEscan (kinases); BPS Bioscience (epigenetic targets)
Procedure: as §1, §2, §3, §4

KIT = target: T10, KIT (Homo sapiens, UniProt P10721); settings: read-out: Percent Control
T10 construct: purchased DiscoverX KINOMEscan (kinases); BPS Bioscience (epigenetic targets)
Procedure: as §1, §2, §3, §4

FLT3 = target: T11, FLT3 (Homo sapiens, UniProt P36888); settings: read-out: Percent Control
T11 construct: purchased DiscoverX KINOMEscan (kinases); BPS Bioscience (epigenetic targets)
Procedure: as §1, §2, §3, §4

SNARK = target: T12, SNARK (Homo sapiens, UniProt Q9H093); settings: read-out: Percent Control
T12 construct: purchased DiscoverX KINOMEscan (kinases); BPS Bioscience (epigenetic targets)
Procedure: as §1, §2, §3, §4

MET = target: T13, MET (Homo sapiens, UniProt P08581); settings: read-out: Percent Control
T13 construct: purchased DiscoverX KINOMEscan (kinases); BPS Bioscience (epigenetic targets)
Procedure: as §1, §2, §3, §4

PRKCE = target: T14, PRKCE (Homo sapiens, UniProt Q02156)
T14 construct: purchased DiscoverRx (DiscoverX), KINOMEscan screening platform
Procedure: as §1, §2, §3, §4

MAP3K4 = target: T15, MAP3K4 (Homo sapiens, UniProt Q9Y6R4); settings: read-out: Percent Control
T15 construct: purchased DiscoverX KINOMEscan (kinases); BPS Bioscience (epigenetic targets)
Procedure: as §1, §2, §3, §4

PDGFRB = target: T16, PDGFRB (Homo sapiens, UniProt P09619); settings: read-out: Percent Control
T16 construct: purchased DiscoverX KINOMEscan (kinases); BPS Bioscience (epigenetic targets)
Procedure: as §1, §2, §3, §4

MAPKAPK2 = target: T17, MAPKAPK2 (Homo sapiens, UniProt P49137); settings: read-out: Percent Control
T17 construct: purchased DiscoverX KINOMEscan (kinases); BPS Bioscience (epigenetic targets)
Procedure: as §1, §2, §3, §4

AKT1 = target: T18, AKT1 (Homo sapiens, UniProt P31749); settings: read-out: Percent Control
T18 construct: purchased DiscoverX KINOMEscan (kinases); BPS Bioscience (epigenetic targets)
Procedure: as §1, §2, §3, §4

[1] = target: T19, JAK3(JH1domain-catalytic) (Homo sapiens, UniProt P52333)
T19 construct: JAK3(JH1domain-catalytic); purchased DiscoverRx (DiscoverX), KINOMEscan screening platform
Procedure: as §1, §2, §3, §4

PAK2 = target: T20, PAK2 (Homo sapiens, UniProt Q13177); settings: read-out: Percent Control
T20 construct: purchased DiscoverX KINOMEscan (kinases); BPS Bioscience (epigenetic targets)
Procedure: as §1, §2, §3, §4

ABL1-phosphorylated = target: T21, ABL1-phosphorylated (Homo sapiens, UniProt P00519); settings: read-out: Percent Control
T21 construct: purchased DiscoverX KINOMEscan (kinases); BPS Bioscience (epigenetic targets)
Procedure: as §1, §2, §3, §4

CDK3 = target: T22, CDK3 (Homo sapiens, UniProt Q00526); settings: read-out: Percent Control
T22 construct: purchased DiscoverX KINOMEscan (kinases); BPS Bioscience (epigenetic targets)
Procedure: as §1, §2, §3, §4

PIK3CG = target: T23, PIK3CG (Homo sapiens, UniProt P48736); settings: read-out: Percent Control
T23 construct: purchased DiscoverX KINOMEscan (kinases); BPS Bioscience (epigenetic targets)
Procedure: as §1, §2, §3, §4

AURKA = target: T24, AURKA (Homo sapiens, UniProt O14965); settings: read-out: Percent Control
T24 construct: purchased DiscoverX KINOMEscan (kinases); BPS Bioscience (epigenetic targets)
Procedure: as §1, §2, §3, §4

JNK1 = target: T25, JNK1 (Homo sapiens, UniProt P45983); settings: read-out: Percent Control
T25 construct: purchased DiscoverX KINOMEscan (kinases); BPS Bioscience (epigenetic targets)
Procedure: as §1, §2, §3, §4

AKT2 = target: T26, AKT2 (Homo sapiens, UniProt P31751); settings: read-out: Percent Control
T26 construct: purchased DiscoverX KINOMEscan (kinases); BPS Bioscience (epigenetic targets)
Procedure: as §1, §2, §3, §4

SRPK3 = target: T27, SRPK3 (Homo sapiens, UniProt Q9UPE1); settings: read-out: Percent Control
T27 construct: purchased DiscoverX KINOMEscan (kinases); BPS Bioscience (epigenetic targets)
Procedure: as §1, §2, §3, §4

TRKA = target: T28, TRKA (Homo sapiens, UniProt P04629)
T28 construct: purchased DiscoverRx (DiscoverX), KINOMEscan screening platform
Procedure: as §1, §2, §3, §4

PIM1 = target: T29, PIM1 (Homo sapiens, UniProt P11309); settings: read-out: Percent Control
T29 construct: purchased DiscoverX KINOMEscan (kinases); BPS Bioscience (epigenetic targets)
Procedure: as §1, §2, §3, §4

EGFR(L858R) = target: T30, EGFR(L858R) (Homo sapiens, UniProt P00533, L858R); settings: read-out: Percent Control
T30 construct: purchased DiscoverX KINOMEscan (kinases); BPS Bioscience (epigenetic targets)
Procedure: as §1, §2, §3, §4

GSK3B = target: T31, GSK3B (Homo sapiens, UniProt P49841); settings: read-out: Percent Control
T31 construct: purchased DiscoverX KINOMEscan (kinases); BPS Bioscience (epigenetic targets)
Procedure: as §1, §2, §3, §4

PAK4 = target: T32, PAK4 (Homo sapiens, UniProt O96013); settings: read-out: Percent Control
T32 construct: purchased DiscoverX KINOMEscan (kinases); BPS Bioscience (epigenetic targets)
Procedure: as §1, §2, §3, §4

TIE2 = target: T33, TIE2 (Homo sapiens, UniProt Q02763); settings: read-out: Percent Control
T33 construct: purchased DiscoverX KINOMEscan (kinases); BPS Bioscience (epigenetic targets)
Procedure: as §1, §2, §3, §4

CSF1R = target: T34, CSF1R (Homo sapiens, UniProt P07333); settings: read-out: Percent Control
T34 construct: purchased DiscoverX KINOMEscan (kinases); BPS Bioscience (epigenetic targets)
Procedure: as §1, §2, §3, §4

PLK1 = target: T35, PLK1 (Homo sapiens, UniProt P53350); settings: read-out: Percent Control
T35 construct: purchased DiscoverX KINOMEscan (kinases); BPS Bioscience (epigenetic targets)
Procedure: as §1, §2, §3, §4

AURKB = target: T36, AURKB (Homo sapiens, UniProt Q96GD4); settings: read-out: Percent Control
T36 construct: purchased DiscoverX KINOMEscan (kinases); BPS Bioscience (epigenetic targets)
Procedure: as §1, §2, §3, §4

PKAC-alpha = target: T37, PKAC-alpha (Homo sapiens, UniProt P17612); settings: read-out: Percent Control
T37 construct: purchased DiscoverX KINOMEscan (kinases); BPS Bioscience (epigenetic targets)
Procedure: as §1, §2, §3, §4

IGF1R = target: T38, IGF1R (Homo sapiens, UniProt P08069); settings: read-out: Percent Control
T38 construct: purchased DiscoverX KINOMEscan (kinases); BPS Bioscience (epigenetic targets)
Procedure: as §1, §2, §3, §4

[2] = target: T39, RSK2(Kin.Dom.1-N-terminal) (Homo sapiens, UniProt P51812); settings: read-out: Percent Control
T39 construct: RSK2(Kin.Dom.1-N-terminal); purchased DiscoverX KINOMEscan (kinases); BPS Bioscience (epigenetic targets)
Procedure: as §1, §2, §3, §4

BRAF(V600E) = target: T40, BRAF(V600E) (Homo sapiens, UniProt P15056, V600E); settings: read-out: Percent Control
T40 construct: purchased DiscoverX KINOMEscan (kinases); BPS Bioscience (epigenetic targets)
Procedure: as §1, §2, §3, §4

[3] = 10 µM, read-out: Percent Control

T28 sequence (P04629 33-796): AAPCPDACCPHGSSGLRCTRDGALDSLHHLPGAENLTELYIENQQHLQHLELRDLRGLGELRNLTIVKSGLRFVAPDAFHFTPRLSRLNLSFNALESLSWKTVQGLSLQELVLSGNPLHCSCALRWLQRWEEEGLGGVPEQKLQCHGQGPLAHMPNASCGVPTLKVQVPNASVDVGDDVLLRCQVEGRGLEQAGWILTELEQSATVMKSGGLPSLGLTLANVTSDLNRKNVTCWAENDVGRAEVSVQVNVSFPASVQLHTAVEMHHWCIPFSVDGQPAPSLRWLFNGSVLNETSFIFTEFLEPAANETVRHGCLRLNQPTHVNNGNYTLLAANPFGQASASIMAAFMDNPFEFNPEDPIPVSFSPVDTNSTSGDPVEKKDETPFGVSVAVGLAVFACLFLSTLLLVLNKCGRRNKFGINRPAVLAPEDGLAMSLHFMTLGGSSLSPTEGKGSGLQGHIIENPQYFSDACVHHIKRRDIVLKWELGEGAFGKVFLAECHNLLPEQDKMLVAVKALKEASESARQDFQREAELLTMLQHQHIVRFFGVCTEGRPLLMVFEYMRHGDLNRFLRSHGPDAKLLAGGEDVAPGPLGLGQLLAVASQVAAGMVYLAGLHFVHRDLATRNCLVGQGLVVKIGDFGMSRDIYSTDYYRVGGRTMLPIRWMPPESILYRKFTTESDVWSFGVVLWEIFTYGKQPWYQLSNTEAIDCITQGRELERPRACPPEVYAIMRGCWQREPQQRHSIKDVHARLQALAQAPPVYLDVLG
T14 sequence (Q02156 whole entry): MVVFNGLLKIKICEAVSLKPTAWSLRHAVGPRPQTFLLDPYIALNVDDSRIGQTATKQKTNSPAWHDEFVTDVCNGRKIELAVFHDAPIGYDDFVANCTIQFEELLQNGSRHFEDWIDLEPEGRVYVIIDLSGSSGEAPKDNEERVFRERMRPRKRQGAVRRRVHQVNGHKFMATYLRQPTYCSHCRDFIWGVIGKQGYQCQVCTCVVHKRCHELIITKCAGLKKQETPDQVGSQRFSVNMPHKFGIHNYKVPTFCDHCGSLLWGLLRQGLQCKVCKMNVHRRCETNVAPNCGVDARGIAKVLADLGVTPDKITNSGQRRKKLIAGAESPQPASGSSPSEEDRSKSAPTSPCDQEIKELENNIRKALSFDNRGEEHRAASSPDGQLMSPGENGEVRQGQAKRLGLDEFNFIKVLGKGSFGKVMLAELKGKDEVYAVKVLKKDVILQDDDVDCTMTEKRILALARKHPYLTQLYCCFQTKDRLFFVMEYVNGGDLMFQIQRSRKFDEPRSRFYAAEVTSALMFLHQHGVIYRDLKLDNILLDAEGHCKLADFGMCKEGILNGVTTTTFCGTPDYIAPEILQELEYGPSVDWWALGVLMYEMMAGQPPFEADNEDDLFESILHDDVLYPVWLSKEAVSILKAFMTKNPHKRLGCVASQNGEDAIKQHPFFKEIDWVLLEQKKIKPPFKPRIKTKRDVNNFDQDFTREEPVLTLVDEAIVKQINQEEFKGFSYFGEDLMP
T19 sequence (P52333 822-1111 limits assumed): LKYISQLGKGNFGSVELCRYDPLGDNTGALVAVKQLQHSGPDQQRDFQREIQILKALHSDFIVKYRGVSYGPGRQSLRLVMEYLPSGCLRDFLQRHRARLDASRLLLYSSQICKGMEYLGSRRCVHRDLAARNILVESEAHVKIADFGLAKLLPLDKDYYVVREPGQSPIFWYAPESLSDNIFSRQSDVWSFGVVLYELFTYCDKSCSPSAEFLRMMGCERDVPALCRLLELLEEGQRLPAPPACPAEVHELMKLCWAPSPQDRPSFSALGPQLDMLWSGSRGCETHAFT
T18 sequence (P31749 whole entry): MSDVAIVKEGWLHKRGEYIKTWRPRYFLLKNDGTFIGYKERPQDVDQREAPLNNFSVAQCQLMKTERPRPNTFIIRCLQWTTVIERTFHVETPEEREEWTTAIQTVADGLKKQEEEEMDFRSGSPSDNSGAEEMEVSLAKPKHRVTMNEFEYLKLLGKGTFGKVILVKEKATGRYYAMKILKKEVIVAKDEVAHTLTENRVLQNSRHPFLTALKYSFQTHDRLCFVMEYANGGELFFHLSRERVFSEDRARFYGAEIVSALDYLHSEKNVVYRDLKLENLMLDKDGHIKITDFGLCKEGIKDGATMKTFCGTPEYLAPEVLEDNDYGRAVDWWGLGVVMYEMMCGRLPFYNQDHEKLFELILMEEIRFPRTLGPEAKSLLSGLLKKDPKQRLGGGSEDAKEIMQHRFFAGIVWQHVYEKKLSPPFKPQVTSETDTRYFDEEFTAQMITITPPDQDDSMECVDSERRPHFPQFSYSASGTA
T6 sequence (Q9H4B4 whole entry): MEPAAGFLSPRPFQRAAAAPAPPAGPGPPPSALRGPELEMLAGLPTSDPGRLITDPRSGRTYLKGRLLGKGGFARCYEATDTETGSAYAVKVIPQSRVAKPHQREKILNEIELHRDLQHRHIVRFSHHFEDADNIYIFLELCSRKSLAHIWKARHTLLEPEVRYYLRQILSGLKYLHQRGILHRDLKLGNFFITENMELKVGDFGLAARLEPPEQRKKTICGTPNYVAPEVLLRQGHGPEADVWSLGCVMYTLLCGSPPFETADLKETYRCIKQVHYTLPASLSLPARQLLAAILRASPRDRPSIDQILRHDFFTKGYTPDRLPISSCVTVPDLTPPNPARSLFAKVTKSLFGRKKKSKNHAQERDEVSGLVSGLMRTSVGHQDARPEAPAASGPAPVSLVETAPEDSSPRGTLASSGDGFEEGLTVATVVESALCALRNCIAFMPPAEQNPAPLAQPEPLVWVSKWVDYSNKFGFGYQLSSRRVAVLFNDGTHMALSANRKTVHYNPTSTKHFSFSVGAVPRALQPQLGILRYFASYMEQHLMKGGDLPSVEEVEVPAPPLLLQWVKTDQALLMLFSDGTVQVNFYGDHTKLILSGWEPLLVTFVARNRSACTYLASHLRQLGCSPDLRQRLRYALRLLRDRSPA
T31 sequence (P49841 whole entry): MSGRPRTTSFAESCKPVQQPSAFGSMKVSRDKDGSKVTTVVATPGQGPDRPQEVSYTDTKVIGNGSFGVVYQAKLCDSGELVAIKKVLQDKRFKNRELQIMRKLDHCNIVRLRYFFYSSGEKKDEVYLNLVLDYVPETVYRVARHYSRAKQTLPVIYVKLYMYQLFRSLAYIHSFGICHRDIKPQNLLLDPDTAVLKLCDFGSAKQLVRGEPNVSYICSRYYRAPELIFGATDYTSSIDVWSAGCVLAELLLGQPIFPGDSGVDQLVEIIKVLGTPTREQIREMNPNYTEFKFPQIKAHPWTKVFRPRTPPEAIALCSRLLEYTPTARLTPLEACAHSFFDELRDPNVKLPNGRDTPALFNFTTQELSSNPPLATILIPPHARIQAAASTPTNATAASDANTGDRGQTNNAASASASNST
T30 sequence (P00533 25-1210 L858R): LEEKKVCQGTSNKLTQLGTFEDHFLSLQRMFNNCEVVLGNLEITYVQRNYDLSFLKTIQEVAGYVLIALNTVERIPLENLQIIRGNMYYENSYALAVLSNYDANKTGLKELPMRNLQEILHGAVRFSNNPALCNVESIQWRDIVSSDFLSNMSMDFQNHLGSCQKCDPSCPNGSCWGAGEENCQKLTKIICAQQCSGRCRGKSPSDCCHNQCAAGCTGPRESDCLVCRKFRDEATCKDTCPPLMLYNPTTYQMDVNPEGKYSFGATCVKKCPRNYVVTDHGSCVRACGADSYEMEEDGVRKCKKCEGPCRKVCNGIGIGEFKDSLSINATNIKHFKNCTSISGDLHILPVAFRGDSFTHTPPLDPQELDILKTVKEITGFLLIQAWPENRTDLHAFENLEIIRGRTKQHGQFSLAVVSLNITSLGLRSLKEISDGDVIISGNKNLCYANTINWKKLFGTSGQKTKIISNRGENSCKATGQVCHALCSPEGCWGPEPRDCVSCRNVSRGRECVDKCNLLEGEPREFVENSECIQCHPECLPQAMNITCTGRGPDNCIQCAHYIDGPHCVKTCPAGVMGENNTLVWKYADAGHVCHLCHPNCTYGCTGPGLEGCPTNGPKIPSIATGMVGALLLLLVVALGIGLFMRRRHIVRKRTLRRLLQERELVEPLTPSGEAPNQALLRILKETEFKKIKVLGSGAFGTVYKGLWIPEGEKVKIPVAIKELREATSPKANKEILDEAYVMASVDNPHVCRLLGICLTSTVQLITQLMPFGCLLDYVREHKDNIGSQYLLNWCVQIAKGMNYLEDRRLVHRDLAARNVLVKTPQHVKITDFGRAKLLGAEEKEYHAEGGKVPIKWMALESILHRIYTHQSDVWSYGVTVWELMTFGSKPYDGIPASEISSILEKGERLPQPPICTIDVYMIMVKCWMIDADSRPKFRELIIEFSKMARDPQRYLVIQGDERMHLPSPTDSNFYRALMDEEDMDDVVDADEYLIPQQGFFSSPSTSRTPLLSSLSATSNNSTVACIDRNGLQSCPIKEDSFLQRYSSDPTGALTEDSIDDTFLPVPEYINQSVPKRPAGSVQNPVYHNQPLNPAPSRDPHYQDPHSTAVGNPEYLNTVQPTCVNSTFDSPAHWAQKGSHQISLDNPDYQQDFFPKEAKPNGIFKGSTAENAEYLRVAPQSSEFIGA
T39 sequence (P51812 1-397 limits assumed): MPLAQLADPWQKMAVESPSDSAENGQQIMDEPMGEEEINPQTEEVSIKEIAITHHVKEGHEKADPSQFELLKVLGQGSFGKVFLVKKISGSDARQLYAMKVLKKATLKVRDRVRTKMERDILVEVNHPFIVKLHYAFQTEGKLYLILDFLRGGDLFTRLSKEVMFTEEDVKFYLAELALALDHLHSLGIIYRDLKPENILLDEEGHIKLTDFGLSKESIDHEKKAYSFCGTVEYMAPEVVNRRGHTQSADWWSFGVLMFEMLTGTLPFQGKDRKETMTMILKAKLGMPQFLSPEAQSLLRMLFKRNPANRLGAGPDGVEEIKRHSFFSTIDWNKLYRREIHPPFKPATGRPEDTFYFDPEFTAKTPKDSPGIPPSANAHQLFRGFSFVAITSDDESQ

COc1cc2c(NC3CCN(C)CC3)cc(-c3ccc(C)o3)nc2cc1OCCCN1CCCC1 [CM-272, 6-methoxy-2-(5-methyl-2-furyl)-N-(1-methyl-4-piperidyl)-7-(3-pyrrolidin-1-ylpropoxy)quinolin-4-amine]
remaining binding at 10 µM (TSSK1B): 100% | remaining binding at 10 µM (MKNK1): 1.4% | remaining binding at 10 µM (MARK3): 100% | remaining binding at 10 µM (CDK7): 53% | remaining binding at 10 µM (MEK2): 22% | remaining binding at 10 µM (PLK3): 73% | remaining binding at 10 µM (IKK-alpha): 45% | remaining binding at 10 µM (RAF1): 73% | remaining binding at 10 µM (PIK3C2B): 61% | remaining binding at 10 µM (KIT): 100% | remaining binding at 10 µM (FLT3): 100% | remaining binding at 10 µM (SNARK): 12% | remaining binding at 10 µM (MET): 91% | remaining binding at 10 µM (PRKCE; [3]): 0% | Kd (PRKCE; KINOMEscan): 1200 nM | remaining binding at 10 µM (MAP3K4): 93% | remaining binding at 10 µM (PDGFRB): 100% | remaining binding at 10 µM (MAPKAPK2): 87% | remaining binding at 10 µM (AKT1): 100% | remaining binding at 10 µM [1, 3]: 0% | Kd ([1]; KINOMEscan): 1800 nM | remaining binding at 10 µM (PAK2): 67% | remaining binding at 10 µM (ABL1-phosphorylated): 4.8% | remaining binding at 10 µM (CDK3): 100% | remaining binding at 10 µM (PIK3CG): 88% | remaining binding at 10 µM (AURKA): 71% | remaining binding at 10 µM (JNK1): 25% | remaining binding at 10 µM (AKT2): 100% | remaining binding at 10 µM (SRPK3): 100% | remaining binding at 10 µM (TRKA; [3]): 0% | Kd (TRKA; KINOMEscan): 1100 nM | remaining binding at 10 µM (PIM1): 93% | remaining binding at 10 µM (EGFR(L858R)): 100% | remaining binding at 10 µM (GSK3B): 61% | remaining binding at 10 µM (PAK4): 100% | remaining binding at 10 µM (TIE2): 90% | remaining binding at 10 µM (CSF1R): 100% | remaining binding at 10 µM (PLK1): 31% | remaining binding at 10 µM (AURKB): 61% | remaining binding at 10 µM (PKAC-alpha): 100% | remaining binding at 10 µM (IGF1R): 97% | remaining binding at 10 µM [2]: 46% | remaining binding at 10 µM (BRAF(V600E)): 27%
